This is an account of results in US5817617A, “Selectin and pertussis toxin derived peptides and uses thereof” (The Rockefeller University, priority 1994, dated 1998).

Holding throughout (type): cell-based
One experiment concerns CR3. The experiment is described as follows: Assay 3: upregulation of integrins (CR3) on the surface of a neutrophil, detected with EC3bi (FIG. 5). The note with it: for # of cells ASSAY 3: peptide at 1 mg/ml, upregulation of integrins on neutrophil; for ability to upregulate integrins on leukocytes, assay 3 (in words): peptides of Table 2. As for the experimental part: EC3bi is an erythrocyte coated with the complement component C3bi and is used to detect the presence of CR3 on the surface of a leukocyte according to the procedure of Wright et al (supra).
The test was conducted with separate proteins in tissue culture as in the experiment described in connection with the previous figure.
Assay 3 measures upregulation of integrins on the surface of a neutorphil as described in FIG. 5. Values ±50% are significant.

A further experiment deals with ELAM. The experiment is described as follows: Assay 1: inhibition of adherence of neutrophils to ELAM-coated surfaces (FIG. 4). The conditions noted are these: for % of inhibition ASSAY 1: peptide at 1 mg/ml, neutrophils on ELAM-coated surfaces. As for the experimental part: In the study, the proteins PT, B-oligomer, S2, S3, S2/S3 and S3/S2 were taken up in an isotonic buffered tissue culture medium to a concentration of 50 ug/ml and the ability of each of them to inhibit adhesion of neutrophils to ELAM or GMP140 was determined as described by Wright et al J. Exp. Med. 158:2016 (1983). The buffer was employed as the control and each protein studied was compared to the control for the ability to decrease adhesion capacity.
Assay 1 is inhibition of adherence of enutrophils to ELAM-coated surfaces as described in connection with FIG. 4. Values ±20% inhibition are significant.

The test system of the next experiment is endothelial cells. The experiment is described as follows: Assay 2: inhibition of adherence of a neutrophil to a monolayer of endothelial cells. The note with it: peptide at 1 mg/ml; for % of inhibition ASSAY 2: neutrophil on monolayer of endothelial cells; for activity in Assays 1 or 2 (in words): adherence of leukocytes to selectins or endothelial cells bearing selectins. From the text: Assay 2 is inhibition of adherence of a neutrophil to a monolayer of endothelial cells as described by Lo et al J. Exp. Med. 173:1493-1500 (1991). Values ±50% inhibition are significant.

Where a SMILES comes first, the peptide text is derived from it.

With `CC[C@H](C)[C@H](NC(=O)[C@H](C)NC(=O)[C@@H](N)C(C)C)C(=O)N[C@@H](CCC(N)=O)C(=O)N[C@@H](CC(N)=O)C(=O)N[C@@H](CCCCN)C(=O)N[C@@H](CCC(=O)O)C(=O)N[C@@H](CCC(=O)O)C(=O)N[C@H](C(=O)N[C@@H](CCC(=O)O)C(=O)N[C@@H](Cc1ccc(O)cc1)C(=O)N[C@@H](CC(C)C)C(=O)N[C@@H](CC(N)=O)C(=O)N[C@@H](CO)C(=O)N[C@H](C(=O)N[C@@H](CC(C)C)C(=O)N[C@@H](CO)C(=O)N[C@@H](Cc1ccc(O)cc1)C(=O)N[C@@H](CO)C(=O)O)[C@@H](C)CC)[C@@H](C)CC` [SEQ ID NO:15, VAIQNKEEIEYLNSILSYS] (H-VAIQNKEEIEYLNSILSYS-OH), in the experiment with CR3, the “# of cells ASSAY 3” value is recorded as 71 # of cells and the “ability to upregulate integrins on leukocytes, assay 3 (in words)” value (“ability to upregulate integrins” below) is “ability to upregulate integrins on leukocytes”. Also, the “% of inhibition ASSAY 1” value in the experiment with ELAM is on record as 22-52%.
In the case of `CC[C@H](C)[C@H](NC(=O)[C@H](C)NC(=O)[C@@H](NC(=O)[C@H](CC(C)C)NC(=O)[C@H](CC(=O)O)NC(=O)[C@@H](N)[C@@H](C)O)C(C)C)C(=O)N[C@@H](CCC(N)=O)C(=O)N[C@@H](CC(N)=O)C(=O)N[C@@H](CCCCN)C(=O)N[C@@H](C)C(=O)N[C@@H](CCC(=O)O)C(=O)N[C@H](C(=O)N[C@@H](CCC(=O)O)C(=O)N[C@@H](Cc1ccc(O)cc1)C(=O)N[C@@H](CC(C)C)C(=O)O)[C@@H](C)CC` [SEQ ID NO:19, TDLVAIQNKAEIEYL] (H-TDLVAIQNKAEIEYL-OH), in the experiment with CR3, the “# of cells ASSAY 3” value was 104 # of cells and the “ability to upregulate integrins” value was “ability to upregulate integrins on leukocytes”. For the same compound, the “% of inhibition ASSAY 2” value with endothelial cells is 80%.
Take `CC(C)C[C@H](NC(=O)[C@H](Cc1ccc(O)cc1)NC(=O)[C@@H](NC(=O)[C@H](CCC(N)=O)NC(=O)[C@H](CC(C)C)NC(=O)[C@H](CCC(=O)O)NC(=O)[C@H](C)NC(=O)[C@H](CC(N)=O)NC(=O)CNC(=O)[C@H](CC(C)C)NC(=O)[C@H](CCC(=O)O)NC(=O)[C@H](C)NC(=O)[C@@H](NC(=O)[C@@H](NC(=O)[C@H](CC(C)C)NC(=O)[C@H](C)N)[C@@H](C)O)C(C)C)[C@@H](C)O)C(=O)O` [SEQ ID NO:26, ALTVAELGNAELQTYL] (H-ALTVAELGNAELQTYL-OH): the “ability to upregulate integrins” value in the experiment on CR3 was “ability to upregulate integrins on leukocytes”. Further, the “activity in Assays 1 or 2 (in words)” value with endothelial cells is reported as “active”.
Consider `CC[C@H](C)[C@H](NC(=O)[C@H](CO)NC(=O)[C@H](CC(N)=O)NC(=O)[C@H](CC(C)C)NC(=O)[C@H](Cc1ccc(O)cc1)NC(=O)[C@H](CCC(=O)O)NC(=O)[C@@H](NC(=O)[C@H](CCC(=O)O)NC(=O)[C@H](CCC(=O)O)NC(=O)[C@@H](N)CCCCN)[C@@H](C)CC)C(=O)N[C@@H](CC(C)C)C(=O)N[C@@H](CO)C(=O)N[C@@H](Cc1ccc(O)cc1)C(=O)N[C@@H](CO)C(=O)O` [SEQ ID NO:29, KEEIEYLNSILSYS] (H-KEEIEYLNSILSYS-OH), for which the “# of cells ASSAY 3” value in the experiment on CR3 is 73 # of cells. Besides, the “% of inhibition ASSAY 1” value in the experiment on ELAM was 0-2%.
In the case of `CC[C@H](C)[C@H](NC(=O)[C@H](C)NC(=O)[C@@H](NC(=O)[C@H](CC(C)C)NC(=O)[C@@H](N)[C@@H](C)O)C(C)C)C(=O)N[C@@H](CCC(N)=O)C(=O)N[C@@H](CC(N)=O)C(=O)N[C@@H](CCCCN)C(=O)N[C@@H](CCC(=O)O)C(=O)N[C@@H](CCC(=O)O)C(=O)N[C@H](C(=O)N[C@@H](CCC(=O)O)C(=O)N[C@@H](Cc1ccc(O)cc1)C(=O)N[C@@H](CC(C)C)C(=O)O)[C@@H](C)CC` [SEQ ID NO:30, TLVAIQNKEEIEYL] (H-TLVAIQNKEEIEYL-OH), in the experiment on CR3, the “# of cells ASSAY 3” value is given as 243 # of cells and the “ability to upregulate integrins” value is on record as “ability to upregulate integrins on leukocytes”. Moreover, the “% of inhibition ASSAY 2” value with endothelial cells was determined as 80%.
With `CC[C@H](C)[C@H](NC(=O)[C@H](C)NC(=O)[C@@H](N)C(C)C)C(=O)N[C@@H](CCC(N)=O)C(=O)N[C@@H](CC(N)=O)C(=O)N[C@@H](CCCCN)C(=O)N[C@@H](C)C(=O)N[C@@H](CCC(=O)O)C(=O)N[C@H](C(=O)N[C@@H](CCC(=O)O)C(=O)N[C@@H](Cc1ccc(O)cc1)C(=O)N[C@@H](CC(C)C)C(=O)N[C@@H](CCC(=O)O)C(=O)N[C@@H](CCCCN)C(=O)N[C@H](C(=O)N[C@@H](CC(C)C)C(=O)N1CCC[C@H]1C(=O)N[C@@H](Cc1ccccc1)C(=O)N[C@@H](CO)C(=O)O)[C@@H](C)O)[C@@H](C)CC` [SEQ ID NO:31, VAIQNKAEIEYLEKTLPFS] (H-VAIQNKAEIEYLEKTLPFS-OH), in the experiment on CR3, the “# of cells ASSAY 3” value is reported as 163 # of cells and the “ability to upregulate integrins” value is given as “ability to upregulate integrins on leukocytes”. In addition, the “% of inhibition ASSAY 1” value in the experiment on ELAM is 23-31%.
Turning to `CC[C@H](C)[C@H](NC(=O)[C@H](CCC(N)=O)NC(=O)[C@H](CCCNC(=N)N)NC(=O)[C@H](CC(C)C)NC(=O)[C@H](Cc1ccc(O)cc1)NC(=O)[C@@H](NC(=O)[C@H](CCC(N)=O)NC(=O)[C@H](CC(C)C)NC(=O)[C@H](CCC(=O)O)NC(=O)[C@H](C)N)[C@@H](C)O)C(=O)N[C@H](C(=O)N1CCC[C@H]1C(=O)NCC(=O)N[C@@H](Cc1c[nH]c2ccccc12)C(=O)N[C@@H](CO)C(=O)O)[C@@H](C)O` [SEQ ID NO:32, AELQTYLRQITPGWS] (H-AELQTYLRQITPGWS-OH), in the experiment with CR3, the “# of cells ASSAY 3” value was 122 # of cells. In the experiment with ELAM, the “% of inhibition ASSAY 1” value is 0-18%.
Turning to `CC[C@H](C)[C@H](NC(=O)[C@H](C)NC(=O)[C@@H](N)C(C)C)C(=O)N[C@@H](CCC(N)=O)C(=O)N[C@@H](CC(N)=O)C(=O)N[C@@H](CCCCN)C(=O)N[C@@H](CC(N)=O)C(=O)N[C@@H](CCC(=O)O)C(=O)N[C@H](C(=O)N[C@@H](CC(=O)O)C(=O)N[C@@H](Cc1ccc(O)cc1)C(=O)N[C@@H](CC(C)C)C(=O)N[C@@H](CC(N)=O)C(=O)N[C@@H](CCCCN)C(=O)N[C@H](C(=O)N[C@@H](CC(C)C)C(=O)N1CCC[C@H]1C(=O)N[C@@H](Cc1ccc(O)cc1)C(=O)N[C@@H](Cc1ccc(O)cc1)C(=O)N[C@@H](CO)C(=O)O)C(C)C)[C@@H](C)CC` [SEQ ID NO:33] (H-VAIQNKNEIDYLNKVLPYYS-OH), in the experiment on CR3, the “# of cells ASSAY 3” value is reported as 113 # of cells and the “ability to upregulate integrins” value is “ability to upregulate integrins on leukocytes”. In the experiment with ELAM, the “% of inhibition ASSAY 1” value was 3-14%.
Taken in the same sequence, the figures for `CC(C)C[C@H](NC(=O)[C@H](CC(=O)O)NC(=O)CNC(=O)[C@H](CO)NC(=O)CNC(=O)[C@H](CCCNC(=N)N)NC(=O)[C@H](CC(C)C)NC(=O)[C@H](CCC(=O)O)NC(=O)[C@H](C)NC(=O)[C@@H](N)C(C)C)C(=O)N[C@@H](CCC(N)=O)C(=O)N[C@@H](CCC(=O)O)C(=O)N[C@@H](Cc1ccc(O)cc1)C(=O)N[C@@H](CC(C)C)C(=O)N[C@@H](CCCNC(=N)N)C(=O)N[C@@H](Cc1c[nH]cn1)C(=O)N[C@H](C(=O)N[C@H](C(=O)N[C@@H](CCCNC(=N)N)C(=O)NCC(=O)N[C@@H](Cc1c[nH]c2ccccc12)C(=O)N[C@@H](CO)C(=O)O)[C@@H](C)O)C(C)C` [SEQ ID NO:34] were 18 # of cells, “does not share this property” and 22-33%.
Consider `CC(C)C[C@H](NC(=O)[C@H](CC(=O)O)NC(=O)CN)C(=O)N[C@@H](CCC(N)=O)C(=O)N[C@@H](CCC(=O)O)C(=O)N[C@@H](Cc1ccc(O)cc1)C(=O)N[C@@H](CC(C)C)C(=O)N[C@@H](CCCNC(=N)N)C(=O)N[C@@H](Cc1c[nH]cn1)C(=O)N[C@H](C(=O)N[C@H](C(=O)N[C@@H](CCCNC(=N)N)C(=O)NCC(=O)N[C@@H](Cc1c[nH]c2ccccc12)C(=O)N[C@@H](CO)C(=O)O)[C@@H](C)O)C(C)C` [SEQ ID NO:35, GDLQEYLRHVTRGWS], for which the “# of cells ASSAY 3” value in the experiment with CR3 is 104 # of cells. Moreover, the “% of inhibition ASSAY 1” value in the experiment on ELAM was 0-14%.
Regarding `CC(C)C[C@H](NC(=O)[C@H](Cc1ccc(O)cc1)NC(=O)[C@H](CCC(=O)O)NC(=O)[C@H](CCC(N)=O)NC(=O)[C@H](CC(C)C)NC(=O)[C@H](CC(=O)O)NC(=O)CNC(=O)[C@H](CO)NC(=O)CNC(=O)[C@H](CC(C)C)NC(=O)[C@H](CCC(=O)O)NC(=O)[C@H](C)NC(=O)[C@@H](NC(=O)[C@@H](NC(=O)[C@H](CC(C)C)NC(=O)[C@H](C)N)[C@@H](C)O)C(C)C)C(=O)O` [SEQ ID NO:36, ALTVAELGSGDLQEYL] (H-ALTVAELGSGDLQEYL-OH), in the experiment with CR3, the “# of cells ASSAY 3” value was 232 # of cells and the “ability to upregulate integrins” value is recorded as “ability to upregulate integrins on leukocytes”. In addition, in the experiment on endothelial cells, the “activity in Assays 1 or 2 (in words)” value is recorded as “active” and the “% of inhibition ASSAY 2” value came out at 80%.
Regarding “S3 with deletion 1: S3 protein from which the VA or YL region of the motif was deleted (TRALTRGNAELQTYLRQITP)”, in the experiment on ELAM (protein at 50 ug/ml, compared to buffer control), the “inhibition of neutrophil/leukocyte adherence to ELAM” value amounted to 16%.
